Values joined by “and” are separate entries in the source; they are usually repeats but may differ in a detail not shown here. Equal entries are not always repeated. “Also recorded” adds a separate entry of the source.
How the values were obtained:
[1] = test system: α-smooth muscle actin (a-SMA); assay: Anti-fibrosis efficacy: IHC of α-SMA in UUO kidney; format: in vivo, Balb/c mice; details: Day 14 post-UUO surgery
Method: (§1) Mouse kidney tissue—Two slides from each kidney were selected for each set of stains such that two section-containing slides were at least 200 μm away from each other. IHC staining was performed on paraffin sections using the microwave-based antigen retrieval technique^32. Tissue sections were deparaffinized and rehydrated to water. After placing the slides in citrate buffer (10 mM citric acid, pH 6.0), the slides were heated in the microwave oven for 3 min under high power (˜95-100° C.) and for 20 more min under low power. After cooling the slides in the heated solution for 30 min, they were rinsed in distilled water twice and in PBS for 5 min. Next, the slides were blocked with 2.5% normal horse serum (Vector Laboratories) for 2 h and incubated with 60 μL of primary antibodies [1 μg/mL for type I collagen (1310-01; Southern BioTech), 0.048 μg/mL for α-SMA (ab150301; Abcam)) 0.625 μg/mL for folate receptor (ab67422; Abcam), 1.25 μg/mL for CD3 (ab16669; Abcam), 1.25 μg/mL for Wnt5b (ab93134; Abcam), and pre-diluted β-catenin (ab15180; Abcam)] at 4° C. overnight. […]
(§2) The major measurable outcome was the expression level of collagen I, as quantified by the percentage area of IHC staining in the kidney sections. […]

UUO mice = assay: In vivo toxicity test (organ histology, blood biochemistry, hematology); set-up: species or system Balb/c mice; details: 7 days post-injection, efficacy dose
Method: Liver, heart, and spleen samples were fixed in 10% buffered formalin for 48 h and then stored in PBS at 4° C. Paraffin-embedded tissue sections of 4 μm thick were stained with hematoxylin and eosin for the tissue morphology by light microscopy. Blood, collected via an intracardiac puncture, was stored in a plain tube for biochemistry tests and in EDTA-coated tubes (Becton Dickinson) for hematology analysis. The blood samples were kept on ice and later sent to PathLab (Hong Kong) for analysis on the same day.

type I collagen = assay: Anti-fibrosis efficacy: IHC of type I collagen in UUO kidney; format: in vivo, Balb/c mice; details: for fractional area of type I collagen in UUO kidney: Day 14 post-UUO surgery (7 days post injection)
Method: Mouse kidney tissue—Two slides from each kidney were selected for each set of stains such that two section-containing slides were at least 200 μm away from each other. IHC staining was performed on paraffin sections using the microwave-based antigen retrieval technique^32. Tissue sections were deparaffinized and rehydrated to water. After placing the slides in citrate buffer (10 mM citric acid, pH 6.0), the slides were heated in the microwave oven for 3 min under high power (˜95-100° C.) and for 20 more min under low power. After cooling the slides in the heated solution for 30 min, they were rinsed in distilled water twice and in PBS for 5 min. Next, the slides were blocked with 2.5% normal horse serum (Vector Laboratories) for 2 h and incubated with 60 μL of primary antibodies [1 μg/mL for type I collagen (1310-01; Southern BioTech), 0.048 μg/mL for α-SMA (ab150301; Abcam)) 0.625 μg/mL for folate receptor (ab67422; Abcam), 1.25 μg/mL for CD3 (ab16669; Abcam), 1.25 μg/mL for Wnt5b (ab93134; Abcam), and pre-diluted β-catenin (ab15180; Abcam)] at 4° C. overnight. Slides were then washed in PBS and treated with 3% H2O2 (Merck Millipore) for 30 min, rinsed again, and incubated with ˜50 μL of secondary antibodies (ImmPRESS HRP Polymer detection Kit, Vector Laboratories) for 30 min. The sections were developed sequentially by using 3,3′-diaminobenzidine (DAB) enzyme substrate (ImmPACT™ DAB, Vector Laboratories) for 2 min. All slides were counter-stained with Mayer's hematoxylin for 3 min, washed in distilled water, dried in 90% ethanol, and mounted by using xylene-based mounting medium. Bright-field images were acquired using the Nikon Eclipse Ni (DS-Ri2) microscope.
FA was dissolved in sterile BioPerformance Certified DMSO (Sigma) and formulated in D5W prior to injection. The final concentration of DMSO was less than 1%. […]
as §2

[2] = neutral conditions, literature ref 45; cited from earlier work
CD3+ T cells = assay: Anti-fibrosis efficacy: IHC of CD3+ T cell infiltration in UUO kidney; format: in vivo, Balb/c mice; details: Day 14 post-UUO surgery
Method: as §1, §2

[3] = test system: UUO mice with established renal fibrosis; assay: Efficacy study in UUO mice: kidney degeneration (gross appearance, histology, kidney weight, blood creatinine); format: in vivo, Balb/c mice; details: treatment from Day 7, sacrifice Day 14 post-UUO surgery
Method: Mouse model of renal fibrosis was induced by the UUO surgery as previously described^12,29. Mice were anesthetized by an intraperitoneal injection of ketamine (100 mg/kg; Alfasan International B.V.) and xylazine (10 mg/kg; Alfasan International B.V.). The peritoneum was cut along the midline, and the left ureter was isolated and ligated twice by using a 5-0 suture (NingBo Cheng-He Microsurgical Instruments). The bowel was laid back and the peritoneum was closed with suture. The mice were placed under a heating lamp to maintain body temperature until they recovered from anesthesia. For analgesia, three injections of buprenorphine (Temgesic, 0.05 mg/kg) were given to the mice subcutaneously every 12 h after the surgery. To verify the development of fibrosis, the mice were sacrificed by cervical dislocation with anesthesia, and their kidneys were weighted (see FIG. 4) and processed for histological analysis (see FIGS. 5A-5C).
FA was dissolved in sterile BioPerformance Certified DMSO (Sigma) and formulated in D5W prior to injection. The final concentration of DMSO was less than 1%. Au3-PEG500-FA NPs formulated in D5W was injected i.v. at a dose of 0.12 mg-FA/kg-mouse (or equivalently 2.5 mg-Au/kg-mouse). […]
as §2

[4] = test system: type I collagen (gene ID: Col1a1); assay: Transcriptomic analysis (RNA-seq) of UUO kidneys; format: in vivo, Balb/c mice; details: UUO kidney, 48 h post-injection, individual replicates 1-3
Method: UUO mice were i.v. injected with Au3-PEG500-FA NPs (i.e., […]) or free (i.e., 0.12 mg-FA/kg-mouse) on Day 7 after UUO surgery, at the same dosage used for the efficacy studies. An untreated group of UUO mice was also included as control. On Day 9 after UUO surgery (i.e., 48 h post-injection), the mice were sacrificed and the UUO kidneys were harvested. After cutting the UUO kidneys in half using a scalpel, one set of the halved kidneys was fixed in buffered formalin while the other set was snap frozen in liquid nitrogen and stored at −80° C. The formalin-fixed samples were dehydrated as mentioned above and embedded in paraffin blocks to generate tissue sections for validating the RNA-seq data. The frozen samples were sent to Beijing Genomics Institute (BGI) for RNA extraction, RNA library construction, and bioinformatic analysis. A total of 9 samples were sequenced using the BGISEQ platform, with ˜4.57 Gb generated per sample. The average mapping ratio with reference genome is 94.33%. Differential expressed genes (DEGs) detection, gene ontology analysis of DEG, and other analysis based on gene expression were performed by BGI. Further analysis of the DEGs was performed by filtering the list of DEGs with a FPKM threshold of 2 for at least 6 out of the 9 UUO samples tested.
Animals were sacrificed on Day 9. […]

With `C[C@H](CS)C(=O)N1CCC[C@H]1C(=O)O` [Captopril] the “area with positive α-SMA in the UUO kidney” value [1] was 12.5%, the “histological examination of liver, heart, and spleen” value (UUO mice) was “did not observe noticeable toxicity” and the “fractional area of type I collagen in UUO kidney” value (type I collagen) was 13.5%.
For `Nc1nc2ncc(CNc3ccc(C(=O)N[C@@H](CCC(=O)O)C(=O)O)cc3)nc2c(=O)[nH]1` [free FA, folic acid], the solubility in water [2] is listed as “poorly soluble in water”, the “mean population of CD3+ T cells” value (CD3+ T cells) is listed as 13 cells/frame and the “area with positive α-SMA in the UUO kidney” value [1] is listed as 10.7%. For the same compound, the “histological examination of liver, heart, and spleen” value (UUO mice) was “did not observe noticeable toxicity”, the “gross tissue degeneration of UUO kidney” value [3] was “rescued the UUO kidney from tissue degeneration; also recorded: did not degenerate” and the “type I collagen protein expression in UUO kidney versus saline group” value (type I collagen; 48 h post-injection (Day 9)) was “lower type I collagen protein expression than the saline group”. For the same compound, the “fractional area of type I collagen in UUO kidney” value (type I collagen) was 11.2% and the “Expression level (FPKM) for type I collagen” value [4] was 185.4 FPKM and 80.71 FPKM and 18.57 FPKM.
